Ki data for 23 compounds are collected here from patent publication US12479825B2, “Melanocortin subtype-2 receptor (MC2R) antagonists and uses thereof” (Crinetics Pharmaceuticals, Inc., priority 2019, dated 2025).

The test concerns the target T1, hMC2 receptor (Homo sapiens, UniProt Q01718).
T1 construct: host or cells: CRE-bla-CHO-K1 cells, crude membrane fraction
The test can be described thus: hMC2 membrane binding assay ([125I]ACTH (1-39) Tyr23, SPA). As to conditions: crude hMC2R membranes from CRE-bla-CHO-K1 cells expressing hMC2 receptor and hMRAP; 0.2 nM [125I]ACTH (1-39) Tyr23; 1.5 hours at room temperature; read-out: MC2R binding potency. The method, then: Crude membrane fractions are prepared from CRE-bla-CHO-K1 cells stably expressing hMC2 receptor and hMRAP accessory protein (Thermo Fisher). The cells are grown to 85-100% confluence on standard tissue culture dishes in GlutaMax DMEM growth media (Gibco) with following additives: 10% dialyzed FBS (Gemini), 0.1 mM NEAA (Gibco), 25 mM HEPES (Gibco), 5 μg/mL blasticidin (Goldbio), 100 μg/mL zeocin (Invitrogen), 600 μg/mL hygromycin (Goldbio). To prepare membranes, cells are scraped and collected in 1× Dulbecco's phosphate buffered saline (Corning) and then pelleted at 1000 RPM's. The cell pellet is reconstituted in membrane preparation buffer (20 mM HEPES, 6 mM MgCl2 and 1 mM EGTA, protease inhibitor tablets (Pierce) adjusted to pH 7.4), homogenized using a dounce homogenizer, and the resulting membrane fraction is pelleted by centrifugation at 12,000 RPM's. The membrane pellet is resuspended in membrane preparation buffer, snap freezed and stored at −80° C. for later use.
The hMC2 membrane binding assay utilizes the following components: radiolabel [^125I]ACTH (1-39) Tyr23 (PerkinElmer), wheat germ agglutinin coated PVT SPA beads (PerkinElmer), crude hMC2R membranes, and compounds. Briefly hMC2R membranes are incubated with SPA beads in binding assay buffer (50 mM HEPES, 5 mM MgCl2, 1 mM CaCl2, 0.2% BSA, protease inhibitor tablets (Pierce) adjusted to pH7.4) prior to assay initiation. A dose response of compound (the final concentration of compound is typically 0-10,000 nM), SPA membranes, and [^125I]ACTH (1-39) Tyr23 at a final concentration of 0.2 nM is plated in a 96-well assay plate and allowed to incubate 1.5 hours at room temperature. Assay plates are read using a Top Count NXT and Ki values for compounds are determined using a GraphPad Prism 6 non-linear regression analysis.

SMILES strings stand for the structures. pKi: −log10 of the molar value.

T1 sequence (Q01718 whole entry): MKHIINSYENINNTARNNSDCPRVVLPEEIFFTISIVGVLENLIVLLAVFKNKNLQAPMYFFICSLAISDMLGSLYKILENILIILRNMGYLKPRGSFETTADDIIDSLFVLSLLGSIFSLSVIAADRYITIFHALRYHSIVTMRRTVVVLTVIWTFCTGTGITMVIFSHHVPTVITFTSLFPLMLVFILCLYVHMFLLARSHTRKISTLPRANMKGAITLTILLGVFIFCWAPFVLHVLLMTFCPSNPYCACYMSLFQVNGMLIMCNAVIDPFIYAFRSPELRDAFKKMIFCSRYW
T1 sequence (Q8TCY5 whole entry partner): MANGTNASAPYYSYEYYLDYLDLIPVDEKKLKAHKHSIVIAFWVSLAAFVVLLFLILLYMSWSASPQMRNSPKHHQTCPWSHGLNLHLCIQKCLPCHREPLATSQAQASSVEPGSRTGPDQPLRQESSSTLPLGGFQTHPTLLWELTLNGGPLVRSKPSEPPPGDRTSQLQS

As to `CCOc1ncccc1-c1ccc(N2CCN(C(=O)c3ccc(F)cc3C(F)(F)F)C[C@H]2CC)c(OCCNC)n1` [1-27, [2-({2′-ethoxy-5-[(2R)-2-ethyl-4-[4-fluoro-2-(trifluoromethyl)benzoyl]piperazin-1-yl]-[2,3′-bipyridin]-6-yl}oxy)ethyl](methyl)amine], the pKi was more than 8.00.

For the compound `CCOc1ccc(O[C@@H]2CCN(c3ccc(-c4cccnc4OCC)nc3C(=O)N[C@@H]3CCN(C)C3)[C@H](C3CC3)C2)c(C(F)(F)F)n1` (racemic) [2-13, 5-[cis*-2-cyclopropyl-4-{[6-ethoxy-2-(trifluoromethyl)pyridin-3-yl]oxy}piperidin-1-yl]-2′-ethoxy-N-[(3R)-1-methylpyrrolidin-3-yl]-[2,3′-bipyridine]-6-carboxamide], the pKi is more than 8.00.

In the case of `CCOc1ncccc1-c1ccc(N2CC[C@H](Oc3ccc(F)cc3C#N)C[C@@H]2C2CC2)c(C(=O)N[C@@H]2CCN(C)C2)n1` (mixture of isomers) [2-25, 5-[cis-4-(2-cyano-4-fluorophenoxy)-2-cyclopropylpiperidin-1-yl]-2′-ethoxy-N-[(3R)-1-methylpyrrolidin-3-yl]-[2,3′-bipyridine]-6-carboxamide], the pKi was more than 8.00.

Consider `CCOc1ccc(C(=O)N2CCN(c3ccc(-c4cccnc4OCC)nc3O[C@H](C)CN)[C@H](CC)C2)c(C(F)(F)F)n1` [1-21, (2R)-2-({2′-ethoxy-5-[(2R)-4-[6-ethoxy-2-(trifluoromethyl)pyridine-3-carbonyl]-2-ethylpiperazin-1-yl]-[2,3′-bipyridin]-6-yl}oxy)propan-1-amine], for which the pKi was more than 8.00.

With `CCOc1ncccc1-c1ccc(N2CC[C@H](Oc3ccc(C(F)(F)F)cc3C#N)C[C@@H]2CC)c(C(=O)N[C@@H]2CCN(C)C2)n1` (single isomer, unassigned) [2-12], the pKi is 7.00 to 8.00.

For `CCOc1ncccc1-c1ccc(N2CCN(C(=O)c3ccc(F)cc3Cl)C[C@H]2CC)c(-c2nnc(CN)[nH]2)n1` [4-2, 1-(5-{5-[(2R)-4-(2-chloro-4-fluorobenzoyl)-2-ethylpiperazin-1-yl]-2′-ethoxy-[2,3′-bipyridin]-6-yl}-4H-1,2,4-triazol-3-yl)methanamine], the pKi is 7.00 to 8.00.

As to `CCOc1ccc(C(=O)N2CCN(c3ccc(-c4cccnc4OCC)nc3O[C@@H](C)CN)[C@H](CC)C2)c(C(F)(F)F)n1` [1-22, (2S)-2-({2′-ethoxy-5-[(2R)-4-[6-ethoxy-2-(trifluoromethyl)pyridine-3-carbonyl]-2-ethylpiperazin-1-yl]-[2,3′-bipyridin]-6-yl}oxy)propan-1-amine], the pKi was more than 8.00.

In the case of `CCOc1ncccc1-c1ccc(N2CC[C@@H](Oc3ccc(Cl)cc3C(F)(F)F)C[C@H]2CC)c(O[C@@H]2CCN(C)C2)n1` (mixture of isomers) [3-9, 5-[rac-(2R,4R)-4-[4-chloro-2-(trifluoromethyl)phenoxy]-2-ethylpiperidin-1-yl]-2′-ethoxy-6-{[(3R)-1-methylpyrrolidin-3-yl]oxy}-2,3′-bipyridine], the pKi is 7.00 to 8.00.

As for `CCOc1ncccc1-c1ccc(N2CCN(C(=O)c3ccc(Cl)cc3C(F)(F)F)C[C@H]2CC)c(OCCNC)n1` [1-15, [2-({5-[(2R)-4-[4-chloro-2-(trifluoromethyl)benzoyl]-2-ethylpiperazin-1-yl]-2′-ethoxy-[2,3′-bipyridin]-6-yl}oxy)ethyl](methyl)amine], the pKi was more than 8.00.

With `CCOc1ncccc1-c1ccc(N2CC[C@H](Oc3ccc(C(F)(F)F)cc3C#N)C[C@H]2C2CC2)c(C(=O)N[C@@H]2CCN(C)C2)n1` (racemic) [2-4, 5-[trans*4-[2-cyano-4-(trifluoromethyl)phenoxy]-2-cyclopropylpiperidin-1-yl]-2′-ethoxy-N-[(3R)-1-methylpyrrolidin-3-yl]-[2,3′-bipyridine]-6-carboxamide], the pKi was more than 8.00.

For `CCOc1ncccc1-c1ccc(N2CC[C@@H](Oc3ccc(Cl)nc3C(F)(F)F)C[C@H]2C2CC2)c(C(=O)N[C@@H]2CCN(C)C2)n1` (racemic) [2-8, 5-[cis*-4-{[6-chloro-2-(trifluoromethyl)pyridin-3-yl]oxy}-2-cyclopropylpiperidin-1-yl]-2′-ethoxy-N-[(3R)-1-methylpyrrolidin-3-yl]-[2,3′-bipyridine]-6-carboxamide], the pKi was more than 8.00.

With `CCOc1ncccc1-c1ccc(N2CC[C@@H](Oc3ccc(Cl)cc3C#N)C[C@H]2CC)c(C(=O)N[C@@H]2CCN(C)C2)n1` (single isomer, unassigned) [2-21], the pKi was more than 8.00.

`CCOc1ncccc1-c1ccc(N2CC[C@@H](Oc3ccc(C(F)(F)F)cc3C#N)C[C@H]2CC)c(C(=O)N[C@@H]2CCN(C)C2)n1` (single isomer, unassigned) [2-11]: the pKi was more than 8.00.

On to `CCOc1ncccc1-c1ccc(N2CCN(C(=O)c3ccc(Cl)cc3C(F)(F)F)C[C@H]2CC)c(OCCN)n1` [1-16, 2-({5-[(2R)-4-[4-chloro-2-(trifluoromethyl)benzoyl]-2-ethylpiperazin-1-yl]-2′-ethoxy-[2,3′-bipyridin]-6-yl}oxy)ethan-1-amine], for which the pKi is more than 8.00.

Consider `CCOc1ncccc1-c1ccc(N2CCN(C(=O)C3(C(F)(F)F)CCCC3)C[C@H]2CC)c(O[C@@H]2CCN(C)C2)n1` [1-3, 2′-ethoxy-5-[(2R)-2-ethyl-4-[1-(trifluoromethyl)cyclopentanecarbonyl]piperazin-1-yl]-6-{[(3R)-1-methylpyrrolidin-3-yl]oxy}-2,3′-bipyridine], for which the pKi was 7.00 to 8.00.

`CCOc1ncccc1-c1ccc(N2CCN(C(=O)N3CCc4cccc(C#N)c43)C[C@H]2CC)c(OCCN)n1` [1-24, 1-[(3R)-4-[6-(2-aminoethoxy)-2′-ethoxy-[2,3′-bipyridin]-5-yl]-3-ethylpiperazine-1-carbonyl]-2,3-dihydro-1H-indole-7-carbonitrile]: the pKi is more than 8.00.

As to `CCOc1ccccc1-c1ccc(N2CC[C@H](Oc3ccc(Cl)cc3C#N)C[C@@H]2C)c(C(=O)N[C@@H]2CCN(C)C2)n1` (mixture of isomers) [2-24, 3-[cis-4-(4-chloro-2-cyanophenoxy)-2-methylpiperidin-1-yl]-6-(2-ethoxyphenyl)-N-[(3R)-1-methylpyrrolidin-3-yl]pyridine-2-carboxamide], the pKi is more than 8.00.

Consider `CCOc1ncccc1-c1ccc(N2CC[C@@H](Oc3ccc(C(F)(F)F)cc3C#N)C[C@H]2CC)c(C(=O)N[C@@H]2CCN(C)C2)n1` (racemic) [2-2, 5-[(cis*-4-[2-cyano-4-(trifluoromethyl)phenoxy]-2-ethylpiperidin-1-yl]-2′-ethoxy-N-[(3R)-1-methylpyrrolidin-3-yl]-[2,3′-bipyridine]-6-carboxamide], for which the pKi was more than 8.00.

With `CCOc1ncccc1-c1ccc(N2CC[C@@H](Oc3ccc(C(F)(F)F)cc3C#N)C[C@H]2C2CC2)c(C(=O)N[C@@H]2CCNC2)n1` (racemic) [2-5, 5-[cis*4-[2-cyano-4-(trifluoromethyl)phenoxy]-2-cyclopropylpiperidin-1-yl]-2′-ethoxy-N-[(3R)-pyrrolidin-3-yl]-[2,3′-bipyridine]-6-carboxamide], the pKi was more than 8.00.

For the compound `CCOc1ncccc1-c1ccc(N2CC[C@@H](Oc3ccc(C(F)(F)F)cc3C#N)C[C@H]2CC)c(C(=O)N[C@@H]2CN3CCC2CC3)n1` (racemic) [2-20, N-[(3S)-1-azabicyclo[2.2.2]octan-3-yl]-5-[cis*-4-[2-cyano-4-(trifluoromethyl)phenoxy]-2-ethylpiperidin-1-yl]-2′-ethoxy-[2,3′-bipyridine]-6-carboxamide], the pKi was more than 8.00.

Turning to `CCOc1ncccc1-c1ccc(N2CC[C@H](Oc3ccc(C)cc3C#N)C[C@@H]2CC)c(C(=O)N[C@@H]2CCN(C)C2)n1` (mixture of isomers) [2-17, 5-[cis-4-(2-cyano-4-methylphenoxy)-2-ethylpiperidin-1-yl]-2′-ethoxy-N-[(3R)-1-methylpyrrolidin-3-yl]-[2,3′-bipyridine]-6-carboxamide], the pKi is more than 8.00.

Turning to `CCOc1ncccc1-c1ccc(N2CCN(C(=O)N3CCC[C@H]3C(F)(F)F)C[C@H]2CC)c(OCCNC)n1` [1-11, [2-({2′-ethoxy-5-[(2R)-2-ethyl-4-[(2S)-2-(trifluoromethyl)pyrrolidine-1-carbonyl]piperazin-1-yl]-[2,3′-bipyridin]-6-yl}oxy)ethyl](methyl)amine], the pKi was more than 8.00.

In the case of `CCOc1ccccc1-c1ccc(N2CC[C@@H](Oc3ccc(C(F)(F)F)nc3C#N)C[C@H]2C)c(C(=O)N[C@@H]2CCN(C)C2)n1` (racemic) [2-23, 3-(cis*-4-{[2-cyano-6-(trifluoromethyl)pyridin-3-yl]oxy}-2-methylpiperidin-1-yl)-6-(2-ethoxyphenyl)-N-[(3R)-1-methylpyrrolidin-3-yl]pyridine-2-carboxamide], the pKi was more than 8.00.
